# Assay results from patent US7790761B2, “Blockade of voltage dependent sodium channels” (University College London, priority 2000, dated 2010).
# Several values for one entry are separate records, joined by “and”; a condition that tells them apart may be missing. Equal entries are not always repeated.
# How the values were obtained:
# sodium channels = experiment: [14C]-labelled guanidine flux through sodium channels; type: biochemical, rat; details: inhibition of flux of [14C]-labelled guanidine through sodium channels
# optic nerve = experiment: tissue or blood; type: cell-based; details: Rattus norvegicus; 30 μM of each drug; OGD 1 h; cGMP accumulation; compared with protection achieved by TTX; read-out: % protection accorded
Structure (SMILES),IC50 (sodium channels),inhibition at 30 µM (optic nerve),IC50 (sodium channels; listed as 5-tert-Butyl-2-methyl-2H-pyrazole-3-carboxylic acid (4-tert-butyl-phenyl)-amide)
"Cc1cccc(NC(=O)c2cc(C)n(Cc3c(Cl)cccc3Cl)n2)c1 [1-(2,6-Dichloro-benzyl)-5-methyl-1H-pyrazole-3-carboxylic acid m-tolylamide]",7 µM,29%,–
Cc1cc(C(=O)Nc2ccc(C(C)(C)C)cc2)nn1C(C)(C)C [1-tert-Butyl-5-methyl-1H-pyrazole-3-carboxylic acid (4-tert-butyl-phenyl)-amide],6 µM,39%,–
CC(C)(C)c1cc(C(=O)NNC(=O)Nc2cccc(Cl)c2)n(Cc2ccccc2)n1 [2-Benzyl-5-tert-butyl-2H-pyrazole-3-carboxylic acid N′-(3-chlorophenylcarbamoyl) hydrazide],5.8 µM,12%,–
Cc1ccc(NC(=O)c2cc(C(C)(C)C)nn2Cc2ccccc2)cc1 [2-Benzyl-5-tert-butyl-2H-pyrazole-3-carboxylic acid p-tolylamide],2 µM,66%,–
"Cn1c(SCC(=O)c2ccc(Cl)cc2)nnc1-c1cc(C(C)(C)C)nn1Cc1ccc(F)cc1 [2-{5-[5-tert-Butyl-2-(4-fluoro-benzyl)-2H-pyrazol-3-yl]-4-methyl-4H-[1,2,4]triazol-3-ylsulfanyl}-1-(4-chloro-phenyl)-ethanone]",4.6 µM,19%,–
"Cn1c(SCC(=O)c2ccccc2)nnc1-c1cc(C(C)(C)C)nn1Cc1ccc(F)cc1 [2-{5-[5-tert-Butyl-2-(4-fluoro-benzyl)-2H-pyrazol-3-yl]-4-methyl-4H-[1,2,4]triazol-3-ylsulfanyl}-1-phenyl-ethanone]",19.5 µM,18%,–
"Cn1c(SCc2ccccc2)nnc1-c1cc(C(C)(C)C)nn1Cc1ccc(F)cc1 [3-Benzylsulfanyl-5-[5-tert-butyl-2-(4-fluoro-benzyl)-2H-pyrazol-3-yl]-4-methyl-4H-[1,2,4]triazole]",12 µM and 12.3 µM,72%,–
Cn1nc(C(C)(C)C)cc1C(=O)Nc1ccc(Cl)cc1 [5-tert-Butyl-2-methyl-2H-pyrazole-3-carboxylic acid (4-chloro-phenyl)-amide],6 µM,62%,–
"Cn1nc(C(C)(C)C)cc1C(=O)Nc1ccc(C(C)(C)C)cc1 [Example 26, 5-tert-Butyl-2-methyl-2H-pyrazole-3-carboxylic acid (4-tert-butyl-phenyl)-amide]",< 9 µM,18%,2 µM
"Cn1nc(C(C)(C)C)cc1C(=O)Nc1cccc(-c2cnco2)c1 [Example 29, 5-tert-Butyl-2-methyl-2H-pyrazole-3-carboxylic acid (3-oxazol-5-yl-phenyl)-amide]",9 µM,–,–
"CC(C)(C)c1cc(NC(=O)c2cc(-c3ccccc3)n(-c3ccc(Cl)cc3)n2)no1 [Example 30, 1-(4-Chloro-phenyl)-5-phenyl-1H-pyrazole-3-carboxylic acid (5-tert-butyl-isoxazol-3-yl)-amide]",15 µM,–,–
"Cc1cc(C(=O)Nc2ccc(C(=O)Nc3ccccc3)cc2)n(C(C)(C)C)n1 [Example 31, 2-tert-Butyl-5-methyl-2H-pyrazole-3-carboxylic acid (4-phenylcarbamoyl-phenyl)-amide]",22 µM,–,–
"CC(C)(C)c1cc(C(=O)Nc2cccc(C(=O)Nc3ccccc3)c2)n(Cc2ccccc2)n1 [Example 32, 2-Benzyl-5-tert-butyl-2H-pyrazole-3-carboxylic acid (3-phenylcarbamoyl-phenyl)-amide]",22 µM,–,–
"Cn1nc(C(C)(C)C)cc1C(=O)Nc1cccc(C(=O)Nc2ccccc2)c1 [Example 33, 5-tert-Butyl-2-methyl-2H-pyrazole-3-carboxylic acid (3-phenylcarbamoyl-phenyl)-amide]",22 µM,–,–
"CC(C)(C)c1cc(C(=O)Nc2ccc(Cl)nc2)n(Cc2ccccc2)n1 [Example 34, 2-Benzyl-5-tert-butyl-2H-pyrazole-3-carboxylic acid (6-chloro-pyridin-3-yl)-amide]",< 9 µM,–,–
"Cc1cc(C(=O)Nc2ccc(Cl)nc2)nn1C(C)(C)C [Example 35, 1-tert-Butyl-5-methyl-1H-pyrazole-3-carboxylic acid (6-chloro-pyridin-3-yl)-amide]",5 µM,–,–
"CC(=O)Nc1ccc(NC(=O)c2cc(C)n(C(C)(C)C)n2)cc1 [Example 36, 1-tert-Butyl-5-methyl-1H-pyrazole-3-carboxylic acid (4-acetylamino-phenyl)-amide]",23 µM,–,–
"Cc1cc(C(=O)Nc2ncccc2OCc2ccccc2)nn1C(C)(C)C [Example 37, 1-tert-Butyl-5-methyl-1H-pyrazole-3-carboxylic acid (3-benzyloxy-pyridin-2-yl)-amide]",< 9 µM,–,–
"CC(=O)Nc1ccc(NC(=O)c2cc(C)n(Cc3ccc(C)cc3)n2)cc1 [Example 38, 5-Methyl-1-(4-methyl-benzyl)-1H-pyrazole-3-carboxylic acid (4-acetylamino-phenyl)-amide]",14 µM,–,–
"CC(=O)Nc1ccc(NC(=O)c2cc(C(C)(C)C)nn2Cc2ccc(Cl)cc2Cl)cc1 [Example 39, 5-tert-Butyl-2-(2,4-dichloro-benzyl)-2H-pyrazole-3-carboxylic acid (4-acetylamino-phenyl)-amide]",24 µM,–,–
"CCn1nc(-c2cccs2)cc1C(=O)Nc1ccc(NC(C)=O)cc1 [Example 40, 2-Ethyl-5-thiophen-2-yl-2H-pyrazole-3-carboxylic acid (4-acetylamino-phenyl)-amide]",< 9 µM,–,–
"CC(C)(C)c1cc(C(=O)Nc2nc(-c3cccnc3)cs2)n(Cc2ccc(Cl)cc2Cl)n1 [Example 41, 5-tert-Butyl-2-(2,4-dichloro-benzyl)-2H-pyrazole-3-carboxylic acid (4-(pyridin-3-yl)thiazol-2-yl)-amide]",14 µM,–,–
"CCn1nc(-c2cccs2)cc1C(=O)Nc1nc(-c2cccnc2)cs1 [Example 42, 2-Ethyl-5-thiophen-2-yl-2H-pyrazole-3-carboxylic acid (4-(pyridin-3-yl)thiazol-2-yl)-amide]",< 9 µM,–,–
"CC(=O)Nc1ccc(NC(=O)c2cc(C(C)(C)C)nn2Cc2ccccc2)cc1 [Example 43, 2-Benzyl-5-tert-butyl-2H-pyrazole-3-carboxylic acid (4-acetylamino-phenyl)-amide]",16 µM,–,–
"Cn1nc(C(C)(C)C)cc1C(=O)Nc1nc(-c2cccnc2)cs1 [Example 44, 5-tert-Butyl-2-methyl-2H-pyrazole-3-carboxylic acid (4-(pyridin-3-yl)thiazol-2-yl)-amide]",< 9 µM,–,–
"COc1ccc(Cc2noc(NC(=O)c3cc(C(C)(C)C)nn3C)n2)cc1 [Example 45, 5-tert-Butyl-2-methyl-2H-pyrazole-3-carboxylic acid [3-(4-methoxy-benzyl)-[1,2,4]oxadiazol-5-yl]-amide]",19 µM,–,–
"CCNCCCCc1nn(Cc2ccccc2)c2ccccc12 [Example 46, [N-Ethyl-(4-Aminobutyl)]-1-benzylindazole]",15.5 µM,–,–
"CN(C)CCNC(=O)c1nn(Cc2ccccc2)c2ccccc12 [Example 47, 1-Benzyl-3-[N-(2-N,N-dimethylaminoethyl)carboxamido]indazole]",63 µM,–,–
"NCc1noc(-c2nn(Cc3ccccc3)c3ccccc23)n1 [Example 51, 1-Benzyl-3-[3-aminomethyl-1,2,4-oxadiazol-yl]indazole]",22.4 µM,–,–
